Data published in the NIST ThermoML archive (doi:10.1016/j.fluid.2013.05.019).
± gives the expanded uncertainty stated by the source.

What was measured:
[1] = Boiling temperature at pressure P; settings: 101 kPa; Liquid; Ebulliometric method (Recirculating still)
[2] = Liquid, Manometric method

For `C=C(C)C(C)C` [2,3-dimethyl-1-butene], the “Boiling temperature at pressure P” value [1] was 55.73 ± 0.04 °C.

For `CC(C)=C(C)C` [2,3-dimethyl-2-butene], the “Boiling temperature at pressure P” value [1] was 73.00 ± 0.04 °C.

For `Cc1ccsc1` [3-methylthiophene], the “Boiling temperature at pressure P” value [1] was 115.20 ± 0.04 °C.

For `CCCCCCC` [heptane], the “vapor or sublimation pressure” value ([2]; 370.27 K) was 97.43 ± 0.32 kPa, the “vapor or sublimation pressure” value ([2]; 370.74 K) was 98.52 ± 0.33 kPa and the “vapor or sublimation pressure” value ([2]; 370.93 K) was 99.39 ± 0.34 kPa. For the same compound, the “vapor or sublimation pressure” value ([2]; 371.13 K) was 99.78 ± 0.33 kPa, the “vapor or sublimation pressure” value ([2]; 371.52 K) was 101.07 ± 0.34 kPa and the “vapor or sublimation pressure” value ([2]; 372.25 K) was 103.43 ± 0.32 kPa. For the same compound, the “vapor or sublimation pressure” value ([2]; 372.36 K) was 103.56 ± 0.35 kPa, the “vapor or sublimation pressure” value ([2]; 372.56 K) was 104.41 ± 0.34 kPa and the “vapor or sublimation pressure” value ([2]; 372.76 K) was 104.67 ± 0.35 kPa. The “vapor or sublimation pressure” value ([2]; 372.97 K) was 105.83 ± 0.36 kPa, the “vapor or sublimation pressure” value ([2]; 373.17 K) was 106.29 ± 0.34 kPa and the “vapor or sublimation pressure” value ([2]; 373.48 K) was 107.02 ± 0.34 kPa. For the same compound, the “Boiling temperature at pressure P” value [1] was 98.49 ± 0.04 °C.

In the case of `c1ccsc1` [thiophene], the “Boiling temperature at pressure P” value [1] is reported as 84.27 ± 0.04 °C.
